The target of data set [1] is T1, Tyrosine-protein phosphatase non-receptor type 22 (Homo sapiens, UniProt Q9Y2R2).
T1 sequence (Q9Y2R2 whole entry): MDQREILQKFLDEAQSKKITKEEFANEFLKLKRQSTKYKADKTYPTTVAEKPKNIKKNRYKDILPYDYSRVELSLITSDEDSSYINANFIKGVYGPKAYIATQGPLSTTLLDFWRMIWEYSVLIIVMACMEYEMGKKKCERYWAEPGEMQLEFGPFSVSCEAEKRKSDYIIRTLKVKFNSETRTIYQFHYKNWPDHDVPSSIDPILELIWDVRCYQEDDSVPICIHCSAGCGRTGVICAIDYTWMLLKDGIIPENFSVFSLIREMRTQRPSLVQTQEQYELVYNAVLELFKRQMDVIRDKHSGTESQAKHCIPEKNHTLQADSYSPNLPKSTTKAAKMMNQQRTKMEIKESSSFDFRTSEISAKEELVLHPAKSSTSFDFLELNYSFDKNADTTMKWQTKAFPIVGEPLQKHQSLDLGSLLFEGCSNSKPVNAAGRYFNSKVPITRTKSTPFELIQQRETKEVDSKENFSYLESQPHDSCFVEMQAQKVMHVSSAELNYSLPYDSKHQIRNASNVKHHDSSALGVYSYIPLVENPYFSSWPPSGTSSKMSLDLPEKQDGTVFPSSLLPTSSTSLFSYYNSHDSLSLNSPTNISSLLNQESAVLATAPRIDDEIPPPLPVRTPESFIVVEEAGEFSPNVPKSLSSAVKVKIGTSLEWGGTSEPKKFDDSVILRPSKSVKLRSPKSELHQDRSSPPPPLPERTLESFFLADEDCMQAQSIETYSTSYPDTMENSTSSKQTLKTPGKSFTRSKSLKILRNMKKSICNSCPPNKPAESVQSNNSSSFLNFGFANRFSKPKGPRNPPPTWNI
In kind it is functional.

Data set [2] addresses T1, Tyrosine-protein phosphatase non-receptor type 22. It is filed as functional. The source holds these as a separate data set.
For data set [3], the target named is T2, Tyrosine-protein phosphatase non-receptor type 7 (Homo sapiens, UniProt P35236).
T2 sequence (P35236 whole entry): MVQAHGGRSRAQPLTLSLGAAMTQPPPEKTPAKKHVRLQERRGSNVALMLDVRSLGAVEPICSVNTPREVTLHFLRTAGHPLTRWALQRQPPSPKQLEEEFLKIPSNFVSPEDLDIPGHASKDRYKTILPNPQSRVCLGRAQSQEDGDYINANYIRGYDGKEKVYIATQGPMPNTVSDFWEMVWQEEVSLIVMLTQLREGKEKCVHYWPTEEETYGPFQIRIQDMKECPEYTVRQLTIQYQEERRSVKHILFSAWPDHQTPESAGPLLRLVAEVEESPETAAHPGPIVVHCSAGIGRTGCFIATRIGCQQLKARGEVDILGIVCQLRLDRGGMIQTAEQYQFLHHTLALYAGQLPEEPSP
It is filed as functional.

In a further data set the target is Cytochrome P450 2D6 (Homo sapiens, UniProt P10635).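 Further: CYP2D6 member of a cytochrome P450 panel assay.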
Chain of Cytochrome P450 2D6 (P10635 whole entry): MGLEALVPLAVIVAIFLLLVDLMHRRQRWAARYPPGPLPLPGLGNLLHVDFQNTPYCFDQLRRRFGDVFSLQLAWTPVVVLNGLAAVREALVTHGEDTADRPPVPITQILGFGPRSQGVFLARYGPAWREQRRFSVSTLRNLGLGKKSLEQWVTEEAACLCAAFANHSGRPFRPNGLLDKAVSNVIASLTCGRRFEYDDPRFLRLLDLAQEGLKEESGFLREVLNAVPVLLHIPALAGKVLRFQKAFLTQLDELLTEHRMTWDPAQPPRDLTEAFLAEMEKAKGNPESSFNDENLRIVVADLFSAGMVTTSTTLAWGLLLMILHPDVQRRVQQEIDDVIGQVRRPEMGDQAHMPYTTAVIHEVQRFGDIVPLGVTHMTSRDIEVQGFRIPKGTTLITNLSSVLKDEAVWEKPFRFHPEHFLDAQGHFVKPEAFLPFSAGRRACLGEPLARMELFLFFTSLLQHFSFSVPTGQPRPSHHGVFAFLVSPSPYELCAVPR
Another data set has as its target Cytochrome P450 2C19 (Homo sapiens, UniProt P33261). The data set can be described thus: Cytochrome panel assay with activity outcomes. Panel member name: p450-cyp2c19 Compounds with AC50 equal or less than 10 uM are considered active. It is filed as functional.
A short description of data set [4]: C. albicans growth with fluconazole, confirmation, fluorescence, retest (AID 2467). It is filed as functional, cell-based.
Data set [5] is described as follows: NIH-3T3 fibroblast cytotoxicity, dose response, cytotoxicity control, cell-based, fluorescence, Alamar Blue, secondary assay (AID 2327).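 Further: NIH-3T3 mouse fibroblasts cultured with fluconazole at 8 µg/mL.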 In kind it is functional. For orientation: The colour change of resazurin is a common sign of viable cells or microbes.
In the next data set the target is T3, Caspase-6 (Homo sapiens, UniProt P55212).
T3 sequence (P55212 whole entry): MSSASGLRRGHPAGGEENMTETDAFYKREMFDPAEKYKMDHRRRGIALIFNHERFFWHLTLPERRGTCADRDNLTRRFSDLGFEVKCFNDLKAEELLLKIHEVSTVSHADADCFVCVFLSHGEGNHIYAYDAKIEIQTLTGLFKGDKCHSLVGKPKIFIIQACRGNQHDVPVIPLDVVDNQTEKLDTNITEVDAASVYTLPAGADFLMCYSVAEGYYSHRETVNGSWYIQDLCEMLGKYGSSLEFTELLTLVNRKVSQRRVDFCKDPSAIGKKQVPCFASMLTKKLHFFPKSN
The data set can be described thus: human caspase-6 inhibitors, dose response, biochemical, VEID-R110 fluorescence, cherry-pick (AID 720632).

The target of data set [6] is T4, Histone-lysine N-methyltransferase NSD2 (Homo sapiens, UniProt O96028).
T4 sequence (O96028 whole entry): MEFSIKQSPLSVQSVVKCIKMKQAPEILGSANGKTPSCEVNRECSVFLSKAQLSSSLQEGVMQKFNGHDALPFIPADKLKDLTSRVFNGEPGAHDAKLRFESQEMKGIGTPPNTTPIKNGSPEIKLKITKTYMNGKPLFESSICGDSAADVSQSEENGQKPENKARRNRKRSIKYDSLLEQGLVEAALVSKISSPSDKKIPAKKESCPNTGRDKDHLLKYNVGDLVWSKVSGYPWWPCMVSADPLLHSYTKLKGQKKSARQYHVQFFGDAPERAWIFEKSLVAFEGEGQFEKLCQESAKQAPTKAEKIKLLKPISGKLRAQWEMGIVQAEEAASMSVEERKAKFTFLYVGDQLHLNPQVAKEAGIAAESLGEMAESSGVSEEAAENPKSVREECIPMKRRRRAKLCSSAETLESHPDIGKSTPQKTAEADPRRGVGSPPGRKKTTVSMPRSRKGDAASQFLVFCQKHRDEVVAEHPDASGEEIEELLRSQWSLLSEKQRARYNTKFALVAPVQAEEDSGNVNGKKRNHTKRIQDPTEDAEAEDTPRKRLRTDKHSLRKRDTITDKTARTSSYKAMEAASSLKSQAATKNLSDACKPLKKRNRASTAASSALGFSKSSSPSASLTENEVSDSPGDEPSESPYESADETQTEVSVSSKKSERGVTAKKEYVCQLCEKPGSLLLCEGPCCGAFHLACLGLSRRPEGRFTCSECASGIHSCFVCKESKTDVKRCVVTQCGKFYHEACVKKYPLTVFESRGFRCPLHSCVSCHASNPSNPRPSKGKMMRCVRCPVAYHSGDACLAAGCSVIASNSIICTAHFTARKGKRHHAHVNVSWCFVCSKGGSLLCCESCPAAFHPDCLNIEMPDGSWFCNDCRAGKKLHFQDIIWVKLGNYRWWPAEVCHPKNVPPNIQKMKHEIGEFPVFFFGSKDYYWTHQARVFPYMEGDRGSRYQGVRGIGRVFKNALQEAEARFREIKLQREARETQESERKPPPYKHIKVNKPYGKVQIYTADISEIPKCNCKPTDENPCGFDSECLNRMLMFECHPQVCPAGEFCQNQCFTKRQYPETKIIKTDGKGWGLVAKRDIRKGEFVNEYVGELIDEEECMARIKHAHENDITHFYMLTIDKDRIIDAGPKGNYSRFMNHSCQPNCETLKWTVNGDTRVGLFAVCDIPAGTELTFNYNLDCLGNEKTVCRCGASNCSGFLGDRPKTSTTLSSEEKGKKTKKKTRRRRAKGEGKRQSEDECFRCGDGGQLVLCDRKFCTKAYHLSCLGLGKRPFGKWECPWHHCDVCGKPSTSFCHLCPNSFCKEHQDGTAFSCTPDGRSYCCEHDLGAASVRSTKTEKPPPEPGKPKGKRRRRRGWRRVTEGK
It is filed as biochemical.

Data set [7] addresses T5, Intestinal-type alkaline phosphatase (Mus musculus, UniProt P24822). The data set can be described thus: mouse intestinal alkaline phosphatase activators, dose response, biochemical, luminescence, uHTS hits (AID 488783). It is filed as functional.
In data set [8] the target is Intestinal-type alkaline phosphatase (Homo sapiens, UniProt P09923). The data set can be described thus: activation of human intestinal alkaline phosphatase – biochemical, dose response (AID 488873). It is filed as functional.
Chain of Intestinal-type alkaline phosphatase (Homo sapiens, UniProt P09923) (P09923 whole entry): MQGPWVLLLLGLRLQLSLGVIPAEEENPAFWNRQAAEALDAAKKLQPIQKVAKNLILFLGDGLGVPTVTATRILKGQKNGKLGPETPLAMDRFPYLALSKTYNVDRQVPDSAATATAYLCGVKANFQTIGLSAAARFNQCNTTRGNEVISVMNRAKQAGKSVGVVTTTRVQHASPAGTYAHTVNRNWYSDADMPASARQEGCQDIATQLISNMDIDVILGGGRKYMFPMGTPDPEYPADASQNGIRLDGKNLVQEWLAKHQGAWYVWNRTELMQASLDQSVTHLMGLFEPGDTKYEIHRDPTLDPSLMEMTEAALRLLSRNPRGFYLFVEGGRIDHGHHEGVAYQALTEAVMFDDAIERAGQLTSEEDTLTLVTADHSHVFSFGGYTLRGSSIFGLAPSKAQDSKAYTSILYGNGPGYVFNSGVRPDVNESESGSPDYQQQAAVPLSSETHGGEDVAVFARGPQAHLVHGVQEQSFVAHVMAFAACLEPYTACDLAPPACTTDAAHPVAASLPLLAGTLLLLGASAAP
The target of data set [9] is T6, Alkaline phosphatase, tissue-nonspecific isozyme (Homo sapiens, UniProt P05186).
T6 sequence (P05186 whole entry): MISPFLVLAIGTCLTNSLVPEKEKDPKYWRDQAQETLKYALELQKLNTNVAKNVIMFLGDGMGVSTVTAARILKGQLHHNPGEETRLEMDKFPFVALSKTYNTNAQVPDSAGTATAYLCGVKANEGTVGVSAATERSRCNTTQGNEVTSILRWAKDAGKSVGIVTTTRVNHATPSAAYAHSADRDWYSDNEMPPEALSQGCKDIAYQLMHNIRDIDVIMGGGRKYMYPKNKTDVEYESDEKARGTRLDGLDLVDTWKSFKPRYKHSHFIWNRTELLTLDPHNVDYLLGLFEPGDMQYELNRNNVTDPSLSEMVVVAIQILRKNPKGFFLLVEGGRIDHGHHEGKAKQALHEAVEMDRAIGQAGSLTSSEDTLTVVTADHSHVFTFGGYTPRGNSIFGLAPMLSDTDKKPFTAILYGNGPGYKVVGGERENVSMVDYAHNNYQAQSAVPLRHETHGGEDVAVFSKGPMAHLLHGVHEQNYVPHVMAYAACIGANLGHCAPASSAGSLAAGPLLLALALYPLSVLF
The data set can be described thus: TNAP enzyme activators, dose response, selectivity assay for mouse IAP activator project, biochemical, TNAP isozyme, mouse IAP uHTS hits (AID 488880). In kind it is functional.

Data set [10] concerns the target T6, Alkaline phosphatase, tissue-nonspecific isozyme. The data set can be described thus: TNAP enzyme inhibition by screening hits, dose response, selectivity assay for mouse IAP inhibitor project, biochemical, human TNAP, uHTS hits (AID 488906). In kind it is functional.
For data set [11], the target named is T5, Intestinal-type alkaline phosphatase. The data set can be described thus: PubChem AID 488785. In kind it is functional.
The next data set concerns the target Large T antigen (Simian virus 40, UniProt P03070). It is filed as functional, Betapolyomavirus macacae.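 Further: Confirmatory-stage PubChem screen for compounds that inhibit SV40 T antigen.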

The structures appear in SMILES notation. Calls of active or inactive are those of the source. A value given as a limit tells only on which side of the number the result lay.

T5 sequence (P24822 whole entry): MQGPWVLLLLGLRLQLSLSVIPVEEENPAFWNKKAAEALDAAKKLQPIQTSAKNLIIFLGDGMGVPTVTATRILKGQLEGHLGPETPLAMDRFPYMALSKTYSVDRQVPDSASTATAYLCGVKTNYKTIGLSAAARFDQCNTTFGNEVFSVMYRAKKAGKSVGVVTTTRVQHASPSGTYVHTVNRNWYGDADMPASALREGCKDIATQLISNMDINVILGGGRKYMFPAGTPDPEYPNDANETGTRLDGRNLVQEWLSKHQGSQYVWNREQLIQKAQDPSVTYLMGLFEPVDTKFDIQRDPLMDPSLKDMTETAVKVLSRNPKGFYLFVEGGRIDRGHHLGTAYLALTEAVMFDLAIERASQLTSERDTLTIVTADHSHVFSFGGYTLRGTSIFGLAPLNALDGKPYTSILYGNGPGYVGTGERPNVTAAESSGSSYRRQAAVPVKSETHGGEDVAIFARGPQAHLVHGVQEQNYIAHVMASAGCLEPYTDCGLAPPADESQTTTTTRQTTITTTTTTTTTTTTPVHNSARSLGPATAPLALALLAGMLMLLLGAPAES
Chain of Cytochrome P450 2C19 (P33261 whole entry): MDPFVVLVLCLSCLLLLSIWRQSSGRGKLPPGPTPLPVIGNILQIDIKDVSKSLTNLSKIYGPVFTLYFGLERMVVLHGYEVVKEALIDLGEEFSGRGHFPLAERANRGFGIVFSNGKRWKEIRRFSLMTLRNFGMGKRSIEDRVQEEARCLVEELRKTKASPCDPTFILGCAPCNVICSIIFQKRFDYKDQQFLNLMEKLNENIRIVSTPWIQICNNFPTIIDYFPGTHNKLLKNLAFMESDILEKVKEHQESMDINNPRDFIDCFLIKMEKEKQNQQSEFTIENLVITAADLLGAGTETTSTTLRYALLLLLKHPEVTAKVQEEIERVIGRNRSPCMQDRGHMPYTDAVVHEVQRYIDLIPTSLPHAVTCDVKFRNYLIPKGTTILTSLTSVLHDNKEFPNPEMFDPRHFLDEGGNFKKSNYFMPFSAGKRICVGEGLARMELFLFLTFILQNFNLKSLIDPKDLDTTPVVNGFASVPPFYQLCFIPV
Chain of Large T antigen (P03070 whole entry): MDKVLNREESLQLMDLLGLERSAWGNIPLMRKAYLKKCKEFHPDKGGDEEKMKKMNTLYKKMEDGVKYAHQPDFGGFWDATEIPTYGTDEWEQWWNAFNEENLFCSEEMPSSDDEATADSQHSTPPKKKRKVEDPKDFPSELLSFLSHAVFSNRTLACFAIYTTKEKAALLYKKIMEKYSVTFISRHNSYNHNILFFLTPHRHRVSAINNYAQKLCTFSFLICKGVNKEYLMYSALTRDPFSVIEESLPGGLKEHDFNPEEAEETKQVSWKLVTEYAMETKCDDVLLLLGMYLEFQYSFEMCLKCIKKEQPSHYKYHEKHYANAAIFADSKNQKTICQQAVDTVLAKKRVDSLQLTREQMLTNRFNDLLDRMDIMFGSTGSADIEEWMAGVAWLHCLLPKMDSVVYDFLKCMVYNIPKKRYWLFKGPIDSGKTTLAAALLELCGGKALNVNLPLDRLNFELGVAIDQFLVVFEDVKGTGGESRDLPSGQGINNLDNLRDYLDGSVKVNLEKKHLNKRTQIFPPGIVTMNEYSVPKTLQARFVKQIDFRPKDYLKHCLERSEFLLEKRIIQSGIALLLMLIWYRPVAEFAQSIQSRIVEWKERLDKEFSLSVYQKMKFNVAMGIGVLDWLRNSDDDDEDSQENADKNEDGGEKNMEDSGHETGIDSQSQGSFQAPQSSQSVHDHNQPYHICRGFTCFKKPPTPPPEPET

Turning to `CC(=O)Nc1ccc(SCC(=O)Nc2ccc(Cl)cn2)cc1`, the IC50 in data set [1], in data set [2] and in [3] was > 79.4 µM (inactive) throughout.
On to `O=C(O)c1cc(/N=N\c2ccc([As](=O)(O)O)cc2)ccc1O`, for which the AC50 entry at Cytochrome P450 2D6 and on Cytochrome P450 2C19 was “inconclusive” each time.
With `NNC(=O)c1cc(O)c(O)c(O)c1`, the EC50 is > 38 µM (not active) in [4]; 41.7 µM (active) in [5]; 8.04 µM (active) in data set [7]; 82.6 µM (active) in data set [8]; 69.3 µM (active) in data set [9]. In addition, the AC50 was 2.43 µM (active) at Caspase-6 and 5.41 µM (active) in [6].
For the compound `COc1cccc(C(C)NC(=O)Nc2cccc(C(F)(F)F)c2)c1` (stereo not drawn), the results for the IC50 in data set [10] and in [11] were > 100 µM (inactive) and 3.21 µM (active), respectively. Moreover, the EC50 in data set [8] is > 100 µM (inactive).
In the case of `O=C(CSc1nc2ccccc2o1)N/N=C/c1ccc(O)c(O)c1`, the AC50 in data set [6] was 0.742 µM (active). In addition, the results for the EC50 in data set [7], in [8] and in data set [9] were 69.9 µM (active), 63 µM (active) and 61.7 µM (active), respectively. Further, on Large T antigen, the IC50 was 6.69 µM (active).
In the case of `Cc1ccc(OCC(=O)N/N=C\c2ccco2)c(C)c1`, the IC50 in data set [1], in [2] and in data set [3] was > 79.4 µM (inactive) each time.

A word on the IC50: it is the midpoint of a concentration-inhibition curve. Usually AC50 stands for the concentration at which the activity in the assay is half-maximal. By EC50 is commonly meant the concentration giving half of the maximal effect.

The values above are taken from ChEMBL document CHEMBL1201862, “PubChem BioAssay data set” (2004).
